Where “and” joins values, the source holds several entries; their conditions need not be identical. Equal values may be shown once.
What was measured:
[1] = test system: T2 maize events expressing the indicated Amaranthus PPO2 variant transgene; test: Maize whole plant PPO inhibitor tolerance testing, injury 0-9 point scale (Table B); assay type: in vivo; settings: V2 stage, 3 days after treatment, individual plants
Protocol: Immature embryos are transformed according to the procedure outlined in Peng et al. (WO2006/136596). Plants are tested for the presence of the T-DNA by Taqman analysis with the target being the nos terminator which is present in all constructs. Healthy looking plants are sent to the greenhouse for hardening and subsequent spray testing. The plants are individually transplanted into MetroMix 360 soil in 4″ pots. Once in the greenhouse (day/night cycle of 27° C./21° C. with 14 hour day length supported by 600 W high pressure sodium lights), they are allowed to grow for 14 days. […] 200 g ai/ha saflufenacil+1.0% v/v methylated seed oil (MSO) and/or 25-200 g ai/ha 1,5-dimethyl-6-thioxo-3-(2,2,7-trifluoro-3-oxo-4-(prop-2-ynyl)-3,4-dihydro-2H-benzo[b][1,4]oxazin-6-yl)-1,3,5-triazinane-2,4-dione (CAS 1258836-72-4) plus 1% MSO. Other PPO inhibiting herbicides are also tested in a similar fashion for confirming cross resistance: flumioxazin, butafenacil, acifluorfen, lactofen, bifenox, sulfentrazone, methyl 2-[2-chloro-5-[3-chloro-5-(trifluoromethyl)-2-pyridyl]-4-fluoro-phenoxy]-2-methoxy-acetate, ethyl 2-[2-chloro-5-[3-chloro-5-(trifluoromethyl)-2-pyridyl]-4-fluoro-phenoxy]-2-methoxy-acetate, prop-2-ynyl 2-[2-chloro-5-[3-chloro-5-(trifluoromethyl)-2-pyridyl]-4-fluoro-phenoxy]-2-methoxy-acetate and photosynthesis inhibitor diuron as negative control. […] […] The top survivors are transplanted into gallon pots filled with Metro Mix 360 for seed production.

[2] = test system: T2 soybean events expressing the indicated Amaranthus PPO2 variant transgene; test: Soybean PPO inhibitor tolerance testing, injury score (Table C); assay type: in vivo, Soybean cv Jake; settings: V2 stage, 3 days after treatment, individual plants
Protocol: Soybean cv Jake is transformed as previously described by Siminszky et al., Phytochem Rev. 5:445-458 (2006). After regeneration, transformants are transplanted to soil in small pots, placed in growth chambers (16 hr day/8 hr night; 25° C. day/23° C. night; 65% relative humidity; 130-150 microE m-2 s-1) and subsequently tested for the presence of the T-DNA via Taqman analysis. After a few weeks, healthy, transgenic positive, single copy events are transplanted to larger pots and allowed to grow in the growth chamber. An optimal shoot for cutting is about 3-4 inches tall, with at least two nodes present. Each cutting is taken from the original transformant (mother plant) and dipped into rooting hormone powder (indole-3-butyric acid, IBA). The cutting is then placed in oasis wedges inside a bio-dome. The mother plant is taken to maturity in the greenhouse and harvested for seed. Wild type cuttings are also taken simultaneously to serve as negative controls. The cuttings are kept in the bio-dome for 5-7 days and then transplanted to 3 inch pots and then acclimated in the growth chamber for two more days. Subsequently, the cuttings are transferred to the greenhouse, acclimated for approximately 4 days prior to spray. […] g ai/ha saflufenacil plus 1% MSO and/or 25-200 g ai/ha 1,5-dimethyl-6-thioxo-3-(2,2,7-trifluoro-3-oxo-4-(prop-2-ynyl)-3,4-dihydro-2H-benzo[b][1,4]oxazin-6-yl)-1,3,5-triazinane-2,4-dione (CAS 1258836-72-4) plus 1% MSO. Other PPO inhibiting herbicides are also tested in a similar fashion for confirming cross resistance: flumioxazin, butafenacil, acifluorfen, lactofen, bifenox, sulfentrazone, methyl 2-[2-chloro-5-[3-chloro-5-(trifluoromethyl)-2-pyridyl]-4-fluoro-phenoxy]-2-methoxy-acetate, ethyl 2-[2-chloro-5-[3-chloro-5-(trifluoromethyl)-2-pyridyl]-4-fluoro-phenoxy]-2-methoxy-acetate, prop-2-ynyl 2-[2-chloro-5-[3-chloro-5-(trifluoromethyl)-2-pyridyl]-4-fluoro-phenoxy]-2-methoxy-acetate and photosynthesis inhibitor diuron as negative control. […]
The following gives a definition of the injury scores measured above: […]

Structure (SMILES): COC(=O)C(OC)Oc1cc(-c2ncc(C(F)(F)F)cc2Cl)c(F)cc1Cl (centres unmarked) [methyl 2-[2-chloro-5-[3-chloro-5-(trifluoromethyl)-2-pyridyl]-4-fluoro-phenoxy]-2-methoxy-acetate]
- injury on a 0-9 point scale ([1]; maize T2, transgene L397D_F420M, 25 g ai/ha + 1% v/v MSO): 0 (2×) and 3 and 1
- injury on a 0-9 point scale ([1]; maize T2, transgene L397D_F420M, 50 g ai/ha + 1% v/v MSO): 0 (2×) and 1 (2×)
- injury on a 0-9 point scale ([1]; maize T2, transgene L397D_F420M, 100 g ai/ha + 1% v/v MSO): 0 (3×) and 1
- injury on a 0-9 point scale ([1]; maize T2, transgene L397D_F420M, 200 g ai/ha + 1% v/v MSO): 0 (2×) and 2 and 1
- injury on a 0-9 point scale ([1]; maize T2, transgene L397E_F420M, 25 g ai/ha + 1% v/v MSO): 9 (2×) and 2 and 0
- injury on a 0-9 point scale ([1]; maize T2, transgene L397E_F420M, 50 g ai/ha + 1% v/v MSO): 0 and 9 (2×) and 1
- injury on a 0-9 point scale ([1]; maize T2, transgene L397E_F420M, 100 g ai/ha + 1% v/v MSO): 4 and 1 and 0
- injury on a 0-9 point scale ([1]; maize T2, transgene L397E_F420M, 200 g ai/ha + 1% v/v MSO): 0 and 6 (2×) and 5
- injury on a 0-9 point scale ([1]; maize T2, transgene R128A_F420I, 25 g ai/ha + 1% v/v MSO): 0 (2×) and 1 (2×)
- injury on a 0-9 point scale ([1]; maize T2, transgene R128A_F420I, 50 g ai/ha + 1% v/v MSO): 2 and 1 (2×) and 0
- injury on a 0-9 point scale ([1]; maize T2, transgene R128A_F420I, 100 g ai/ha + 1% v/v MSO): 0 (2×) and 1 (2×)
- injury on a 0-9 point scale ([1]; maize T2, transgene R128A_F420I, 200 g ai/ha + 1% v/v MSO): 1 (3×) and 0
- injury on a 0-9 point scale ([1]; maize, Non transgenic, 25 g ai/ha + 1% v/v MSO): 8 and 9 (3×)
- injury on a 0-9 point scale ([1]; maize, Non transgenic, 50 g ai/ha + 1% v/v MSO): 9
- injury on a 0-9 point scale ([1]; maize, Non transgenic, 100 g ai/ha + 1% v/v MSO): 9
- injury on a 0-9 point scale ([1]; maize, Non transgenic, 200 g ai/ha + 1% v/v MSO): 9
- injury on a 0-9 point scale ([2]; soybean T2, transgene L397E_F420M, 25 g ai/ha + 1% v/v MSO): 1
- injury on a 0-9 point scale ([2]; soybean T2, transgene L397E_F420M, 50 g ai/ha + 1% v/v MSO): 3 and 4
- injury on a 0-9 point scale ([2]; soybean T2, transgene L397E_F420M, 100 g ai/ha + 1% v/v MSO): 3 and 4 and 9
- injury on a 0-9 point scale ([2]; soybean T2, transgene L397E_F420M, 200 g ai/ha + 1% v/v MSO): 3 (2×) and 4
- injury on a 0-9 point scale ([2]; soybean T2, transgene L397Q_F420M, 25 g ai/ha + 1% v/v MSO): 1 and 0 and 9
- injury on a 0-9 point scale ([2]; soybean T2, transgene L397Q_F420M, 50 g ai/ha + 1% v/v MSO): 9 and 1
- injury on a 0-9 point scale ([2]; soybean T2, transgene L397Q_F420M, 100 g ai/ha + 1% v/v MSO): 3
- injury on a 0-9 point scale ([2]; soybean T2, transgene L397Q_F420M, 200 g ai/ha + 1% v/v MSO): 3 and 9 and 4
- injury on a 0-9 point scale ([2]; soybean T2, transgene R128A_F420I event 1, 25 g ai/ha + 1% v/v MSO): 0
- injury on a 0-9 point scale ([2]; soybean T2, transgene R128A_F420I event 1, 50 g ai/ha + 1% v/v MSO): 1 and 2 (2×)
- injury on a 0-9 point scale ([2]; soybean T2, transgene R128A_F420I event 1, 100 g ai/ha + 1% v/v MSO): 2 (2×) and 3
- injury on a 0-9 point scale ([2]; soybean T2, transgene R128A_F420I event 1, 200 g ai/ha + 1% v/v MSO): 4 (2×) and 3
- injury on a 0-9 point scale ([2]; soybean T2, transgene R128A_F420I event 2, 25 g ai/ha + 1% v/v MSO): 0 and 9
- injury on a 0-9 point scale ([2]; soybean T2, transgene R128A_F420I event 2, 50 g ai/ha + 1% v/v MSO): 3 (2×) and 4
- injury on a 0-9 point scale ([2]; soybean T2, transgene R128A_F420I event 2, 100 g ai/ha + 1% v/v MSO): 1 and 3
- injury on a 0-9 point scale ([2]; soybean T2, transgene R128A_F420I event 2, 200 g ai/ha + 1% v/v MSO): 5 (2×) and 4
- injury on a 0-9 point scale ([2]; soybean T2, transgene R128A_F420I event 3, 25 g ai/ha + 1% v/v MSO): 0
- injury on a 0-9 point scale ([2]; soybean T2, transgene R128A_F420I event 3, 50 g ai/ha + 1% v/v MSO): 1 and 2 and 0
- injury on a 0-9 point scale ([2]; soybean T2, transgene R128A_F420I event 3, 100 g ai/ha + 1% v/v MSO): 1 and 3
- injury on a 0-9 point scale ([2]; soybean T2, transgene R128A_F420I event 3, 200 g ai/ha + 1% v/v MSO): 4
- injury on a 0-9 point scale ([2]; soybean T2, transgene R128A_F420V, 25 g ai/ha + 1% v/v MSO): 2 and 1
- injury on a 0-9 point scale ([2]; soybean T2, transgene R128A_F420V, 50 g ai/ha + 1% v/v MSO): 4 and 9
- injury on a 0-9 point scale ([2]; soybean T2, transgene R128A_F420V, 100 g ai/ha + 1% v/v MSO): 4
- injury on a 0-9 point scale ([2]; soybean T2, transgene R128A_F420V, 200 g ai/ha + 1% v/v MSO): 9 and 4 and 5
- injury on a 0-9 point scale ([2]; soybean, Non transgenic, 25 g ai/ha + 1% v/v MSO): 9 (2×) and 8
- injury on a 0-9 point scale ([2]; soybean, Non transgenic, 50 g ai/ha + 1% v/v MSO): 9
- injury on a 0-9 point scale ([2]; soybean, Non transgenic, 100 g ai/ha + 1% v/v MSO): 9
- injury on a 0-9 point scale ([2]; soybean, Non transgenic, 200 g ai/ha + 1% v/v MSO): 9 (2×) and 8
